# Data as given in patent publication USRE38825E1, “Glyphosate tolerant plants” (Monsanto Technology LLC, priority 1990, dated 2005).
# Target: LBAA glyphosate oxidoreductase variant v.247 (v1v2v3: GLY84, ARG153, ARG334), SEQ ID NO:18 (Ochrobactrum sp. G-1, UniProt D2KI28, H334R/K153R/S2A/S84G)
# Assay: Kinetic analysis of glyphosate oxidoreductase variant v.247
# Format: biochemical, bacterial isolate LBAA (Pseudomonas strain LBAA)
# Method: The mutagenesis procedure used was that of Mn++-poisoned PCR and the template was a linearized glyphosate oxidoreductase gene plasmid containing the synthetic glyphosate oxidoreductase gene (SEQ ID NO:8). The oligonucleotide primers used were homologous to regions in the vector and flanking the glyphosate oxidoreductase gene. The PCR conditions employed were as follows: 1 minute at 94° C., 2 minutes at 55° C., and 3 minutes at 72° C. and with 35 cycles. A 5:1 ratio of dCTP+dGTP+TTP to dATP was used. The reactions contained MnCl2 at 125, 250, 375, or 500 μM. After the reaction, the amplified product was recloned into a vector containing a weak E. coli promoter. This vector was a pBR327 derivative containing the araBAD promoter and suitable cloning sites. One hundred colonies from this cloning step were then screened in E. coli GB993 for improved glyphosate tolerance and utilization phenotypes in media composed of MOPS minimal medium with glyphosate and Pi or with glyphosate alone, respectively. Growth rates were determined by measuring A550 over a 96 hour period. […] The glyphosate oxidoreductase gene was recloned into the expression vector portion and this phenotype verified. All kinetic analysis was performed on crude E. coli lysates. Putative glyphosate oxidoreductase variant proteins were overexpressed after subcloning the NcoI/HindIII variant glyphosate oxidoreductase gene into PrecA-gene10L expression vector. For overexpression in PrecA-gene10L constructs, GB993 cells containing the vector were induced at a Klett=110-120 in M9 minimal medium with 50 μg/ml nalidixic acid and allowed to grow for 2.5 hours at 37° C. with vigorous shaking. Cells were harvested by centrifugation at 4000 g, 5 minutes at 4° C., and resuspend in 100 mM Tris-HCl, pH 7.1, 1 mM EDTA, 35 mM KCl, 20% glycerol, and 1 mM benzamidine at 3 ml/g cell pellet. Lysates were prepared by breaking the cells in a French press, twice, at 1000 psi. Insoluble debris was removed by centrifugation at 12000 g, 15 minutes at 4° C., and the supernatant was de-salted by passing over a PD-10 column (Sephadex G-25, Pharmacia). The void volume fraction was used as the source of enzyme for kinetic analysis. Protein concentrations were determined using the Bio-Rad protein dye-binding assay. Time and enzyme concentration courses were performed to determine linear ranges. […] Ten minutes was determined to be the optimal time for the enzyme assay using 10 μg lysate. After 10 minutes at 30° C. with shaking, 0.25 ml dinitrophenylhydrazine (DNPH) reagent (0.5 mg/ml in 0.5M HCl) was added and the reaction was allowed to proceed for an additional 5 minutes at 30° C. with shaking. A 1.5M NaOH solution (400 μl) was then added to the assay mix, and the reaction was continued for 5 minutes at 30° C. with shaking. Enzyme activity was determined from the amount of glyoxylate-DNPH adduct formed by measuring A520 against a standard of glyoxylate. Enzyme assays are performed in duplicate on at least two different single colony isolates of a putative glyphosate oxidoreductase variant. To determine Km and Vmax, enzyme assays were performed over a (0.2-2.0)×Km range of glyphosate concentrations. The Km and Vmax were determined from Lineweaver Burk, Eadie-Hofstee and hyperbolic kinetic plots. Vmax was estimated after determining the amount of immunoreactive glyphosate oxidoreductase protein in lysates by immunoblot analysis as described below. Immunoblot analysis was performed following SDS-PAGE and transfer of protein from the gel to nitrocellulose at 500 mA in a Hoeffer transfer apparatus in 25 mM Tris-HCl, 192 mM glycine containing 0.1% SDS and 25% methanol for 1-2 hours. After transfer, the nitrocellulose was incubated with 50 mM Tris-HCl, pH7.5, 0.9% NaCl, 0.01% Tween 20, 0.02% NaN3 containing 2% bovine serum albumin at room temperature with shaking for at least 30 minutes. […]
structure (smiles),measurement,setting,value
"O=C(O)CNCP(=O)(O)O [glyphosate, N-phosphonomethyl-glycine]",VmKm,"domain switch experiment, v.247 (v1v2v3), substrate glyphosate",0.34
same,VmKm (Glyp),v.247,.23
same,lower Km for glyphosate than the wild type glyphosate oxidoreductase,v.247 versus wild type,10 fold
same,app Vm (Glyp),"v.247, pH 7.4, 30° C.",0.6 U/mg
